Measured values: the supplement of paper PMC10307832

How the values were obtained:
Experiment in all cases: relative viability (nuclei count vs DMSO), 5 days (fraction); higher = more cells survive
[1] = compound: CS(=O)(=O)N1CCN(Cc2cc3nc(-c4cccc5[nH]ncc45)nc(N4CCOCC4)c3s2)CC1 [Pictilisib] + CC(=O)Nc1cccc(-n2c(=O)n(C3CC3)c(=O)c3c(Nc4ccc(I)cc4F)n(C)c(=O)c(C)c32)c1 [Trametinib] (partner 0.02 µM)
How it was run: (§1)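 After 5 days of treatment, lung cancer cells in 1536-well plates were fixed and stained in a single step (final 0.05% Triton X-100, 1% formaldehyde, 1 ug/ml Hoechst) and their nuclei counted on 4× images. Treatment had been applied by pin tool the day after seeding as one drug alone or as a fixed anchor-drug dose with five library-drug doses (not always all listed) in √10 steps. Relative viability is the nuclei count of treated wells divided by that of vehicle wells, and values are medians of duplicate plates.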

[2] = compound: CS(=O)(=O)N1CCN(Cc2cc3nc(-c4cccc5[nH]ncc45)nc(N4CCOCC4)c3s2)CC1 [Pictilisib] + CS(=O)(=O)CCNCc1ccc(-c2ccc3ncnc(Nc4ccc(OCc5cccc(F)c5)c(Cl)c4)c3c2)o1 [Lapatinib] (partner 2 µM)
How it was run: as §1

[3] = compound: CS(=O)(=O)N1CCN(Cc2cc3nc(-c4cccc5[nH]ncc45)nc(N4CCOCC4)c3s2)CC1 [Pictilisib] + Nc1nc2[nH]cc(CCc3ccc(C(=O)N[C@@H](CCC(=O)O)C(=O)O)cc3)c2c(=O)[nH]1 [Pemetrexed] (partner 0.2 µM)
How it was run: as §1

[4] = compound: NC1(c2ccc(-c3nc4ccn5c(=O)[nH]nc5c4cc3-c3ccccc3)cc2)CCC1 [MK-2206] + COc1cccc2cc(-c3nc([C@H]4CC[C@H](C(=O)O)CC4)n4ncnc(N)c34)[nH]c12 [OSI-027] (partner 0.5 µM)
How it was run: as §1

[5] = compound: NC1(c2ccc(-c3nc4ccn5c(=O)[nH]nc5c4cc3-c3ccccc3)cc2)CCC1 [MK-2206] + N=C(N)NC(=N)NCCc1ccccc1 [Phenformin] (partner 250 µM)
How it was run: as §1

Cell Line	relative viability ([1]; first compound 0.02 µM)	relative viability ([1]; first compound 0.06325 µM)	relative viability ([1]; first compound 0.6325 µM)	relative viability ([1]; first compound 2 µM)	relative viability ([2]; first compound 0.02 µM)	relative viability ([2]; first compound 0.06325 µM)	relative viability ([2]; first compound 0.6325 µM)	relative viability ([2]; first compound 2 µM)	relative viability ([3]; first compound 0.02 µM)	relative viability ([3]; first compound 0.06325 µM)	relative viability ([3]; first compound 0.6325 µM)	relative viability ([3]; first compound 2 µM)	relative viability ([4]; first compound 0.01 µM)	relative viability ([4]; first compound 0.03162 µM)	relative viability ([4]; first compound 0.3162 µM)	relative viability ([4]; first compound 1 µM)	relative viability ([5]; first compound 0.01 µM)	relative viability ([5]; first compound 0.03162 µM)	relative viability ([5]; first compound 0.3162 µM)	relative viability ([5]; first compound 1 µM)
HOP-62	0.396	0.356	0.332	0.178	1.15	1.44	0.931	0.742	0.319	0.271	0.267	0.271	0.808	0.808	0.74	0.828	0.62	0.725	0.701	0.699
LC-2-ad	0.892	0.945	0.73	0.629	0.989	1.13	0.506	0.439	0.277	0.278	0.272	0.23	0.76	0.837	0.592	0.383	0.544	0.589	0.532	0.365
SW 900	0.899	0.753	0.683	0.364					0.499	0.478	0.477	0.27	0.728	0.542	0.416	0.481	0.656	0.71	0.451	0.538
NCI-H322M	0.516	0.529	0.407	0.394	0.57	0.588	0.493	0.423	0.541	0.616	0.584	0.239	0.484	0.49	0.386	0.377	0.756	0.822	0.725	0.769
SK-LU-1	0.459	0.47	0.355	0.32	0.977	0.792	0.665	0.481	0.967	1.07	0.835	0.624	0.349	0.325	0.224	0.325	0.536	0.602	0.476	0.503
NCI-H1734	0.692	0.717	0.499	0.315	1.1	1.11	0.653	0.41	0.39	0.417	0.39	0.355	0.603	0.572	0.366	0.356	0.355	0.458	0.304	0.338
HCC-44	0.896	1.03	1.01	0.643	0.86	0.977	1.06	0.674	0.655	0.642	0.695	0.673	0.496	0.441	0.472	0.205	0.184	0.184	0.152	0.107
NCI-H1703					0.939	1.33	0.405	0.247												
NCI-H2170	0.864	0.916	0.784	0.587	0.285	0.306	0.226	0.245	0.268	0.273	0.249	0.228	0.747	0.701	0.625	0.588	0.398	0.44	0.426	0.404
NCI-H1395	1.03	1.03	0.866	0.477	1.18	1.1	0.884	0.563	1.01	0.905	0.745	0.373	0.699	0.588	0.437	0.471	0.508	0.481	0.4	0.354
NCI-H1355	0.4	0.343	0.295	0.198	1.01	1	0.981	0.615	1.02	1.05	1.08	0.478	0.394	0.433	0.289	0.235	0.434	0.476	0.4	0.317
NCI-H1650	0.595	0.662	0.506	0.382	1.02	0.806	0.672	0.51	0.325	0.361	0.358	0.302	0.58	0.66	0.488	0.39	0.509	0.465	0.388	0.384
IA-LM					0.926	0.79	0.678	0.364												
NCI-H1666	0.802	0.892	0.622	0.575	0.666	0.725	0.476	0.307	0.947	0.846	0.737	0.725	0.845	0.806	0.729	0.767	0.586	0.595	0.568	0.563
HCC-78	0.681	0.561	0.404	0.281	0.685	0.749	0.594	0.181	0.894	0.911	0.861	0.893	0.394		0.351	0.285	0.7		0.753	0.524
H3255	0.611	0.556	0.394	0.243	0.237	0.222	0.153	0.124	0.611	0.613	0.525	0.399	0.635	0.624	0.481	0.413	0.357	0.322	0.368	0.343
NCI-H23	0.367	0.319	0.241	0.163	1.17	1.45	0.952	0.496	0.618	0.757	0.5	0.374	0.646	0.503	0.455	0.337	0.688	0.844	0.673	0.666
